This test deals with R. pulicis. Type of test: cell-based, Rickettsia pulicis.

With `CO[C@H]1/C=C/O[C@@]2(C)Oc3c(C)c(O)c4c(O)c(c(/C=N/N5CCN(C)CC5)c(O)c4c3C2=O)NC(=O)/C(C)=C\C=C\[C@H](C)[C@H](O)[C@@H](C)[C@@H](O)[C@@H](C)[C@H](OC(C)=O)[C@@H]1C` [Rifampin], the “inhibitory at single concentration tested” value is “inhibitory”.
